The results in this text go back to ChEMBL document CHEMBL6134848, “Deuteration Strategy-Inspired Design of Novel Diarylpyrimidine Derivatives as Potent Non-Nucleoside Reverse Transcriptase Inhibitors Featuring Improved Efficacy, Selectivity, and Druggability” (J Med Chem, 2025).

Data set [1] deals with Human immunodeficiency virus 1. In words: Antiviral activity against wild-type HIV-1 IIIB infected in human MT4 cells assessed as protection against virus-induced cytopathicity measured after 5 days post-infection by MTT assay. To be noted: Human immunodeficiency virus 1, IIIB, MT4, 120 h. The class given is functional, organism-based. (Protection from cytopathic effect is a common read-out in antiviral testing.)

Data set [2] can be described thus: Cytotoxicity against human MT4 cells assessed as reduction in cell viability by MTT assay. The class given is toxicity, cell-based. For orientation: Formazan colour is commonly taken as a measure of viable cells.
Data set [3] can be described thus: Selectivity index, ratio of CC50 for cytotoxicity against human MT4 cells to EC50 for antiviral activity against wild-type HIV-1 IIIB infected in human MT4 cells. The data set is classed as toxicity, cell-based. As to conditions: read-out: Ratio CC50/EC50.
Data set [4] has as its system Human immunodeficiency virus 1. The data set is described as follows: Antiviral activity against drug-resistant HIV-1 harboring RT L100I mutant infected in human MT4 cells assessed as protection against virus-induced cytopathicity measured after 5 days post-infection by MTT assay. To be noted: Human immunodeficiency virus 1, MT4, 120 h. The class given is functional, organism-based.

Data set [5] relates to Human immunodeficiency virus 1. In words: Antiviral activity against drug-resistant HIV-1 harboring RT K103N mutant infected in human MT4 cells assessed as protection against virus-induced cytopathicity measured after 5 days post-infection by MTT assay. The data set is classed as functional, organism-based. As to conditions: Human immunodeficiency virus 1, MT4, 120 h.
The test system of data set [6] is Human immunodeficiency virus 1. The data set is described as follows: Antiviral activity against drug-resistant HIV-1 harboring RT Y181C mutant infected in human MT4 cells assessed as protection against virus-induced cytopathicity measured after 5 days post-infection by MTT assay. The data set is classed as functional, organism-based. To be noted: Human immunodeficiency virus 1, MT4, 120 h.

Data set [7] has as its system Human immunodeficiency virus 1. In words: Antiviral activity against drug-resistant HIV-1 harboring RT Y188L mutant infected in human MT4 cells assessed as protection against virus-induced cytopathicity measured after 5 days post-infection by MTT assay. The class given is functional, organism-based. To be noted: Human immunodeficiency virus 1, MT4, 120 h.
For data set [8], the system named is Human immunodeficiency virus 1. The data set is described as follows: Antiviral activity against drug-resistant HIV-1 harboring RT E138K mutant infected in human MT4 cells assessed as protection against virus-induced cytopathicity measured after 5 days post-infection by MTT assay. The class given is functional, organism-based. To be noted: Human immunodeficiency virus 1, MT4, 120 h.

Data set [9] concerns Human immunodeficiency virus 1. In words: Antiviral activity against drug-resistant HIV-1 harboring RT F227L/V106A mutant infected in human MT4 cells assessed as protection against virus-induced cytopathicity measured after 5 days post-infection by MTT assay. The class given is functional, organism-based. To be noted: Human immunodeficiency virus 1, MT4, 120 h.
Data set [10] concerns Human immunodeficiency virus 1. The data set is described as follows: Antiviral activity against drug-resistant HIV-1 harboring RT RES056 mutant infected in human MT4 cells assessed as protection against virus-induced cytopathicity measured after 5 days post-infection by MTT assay. The class given is functional, organism-based. As to conditions: Human immunodeficiency virus 1, MT4, 120 h.

Data set [11] concerns the target Human immunodeficiency virus type 1 reverse transcriptase (Human immunodeficiency virus 1, UniProt Q72547). In words: Inhibition of recombinant wild type HIV-1 reverse transcriptase incubated for 40 mins in presence of poly(rA) template/oligo(dT)16 primer by Pico-Green dye based analysis.

The structures appear in SMILES notation.

In general, EC50 refers to the concentration giving half of the maximal effect. What is called CC50 is the concentration at which the toxic effect on the cells reaches its halfway point. The IC50 is the concentration that gives 50% inhibition. For the molecule `[2H]C([2H])([2H])c1cc(C#N)cc(C)c1Oc1nc(NC2CCN(Cc3ccc(C(N)=O)cc3)CC2)nc2ccsc12`, the EC50 in data set [1] came out at 12.8 nM; in [4], 68.2 nM; in data set [5], 11.2 nM; in data set [6], 65.3 nM; in data set [7] it was 59.9 nM; in data set [8], 53.5 nM. Also, the concentration giving a half-maximal response (EC50) amounted to 65.2 nM in [9] and 887 nM in [10]. Besides, the CC50 in data set [2] was over 242000 nM. The selectivity ratio in data set [3] was over 18900. Further, in data set [11], the concentration for half-maximal inhibition (IC50) amounted to 150 nM.
For `[2H]C([2H])([2H])c1cc(C#N)cc(C)c1Oc1nc(NC2CCN(Cc3ccc(C(N)=O)cc3)CC2)nc2scnc12`, the 50% effective concentration (EC50) in data set [1] was 2.03 nM; in data set [4] it was 13.3 nM; in data set [5], 4.31 nM; in data set [6], 10.4 nM; in data set [7] it was 52.9 nM; in [8] it was 10.4 nM. The results for the EC50 in data set [9] and in data set [10] were 103 nM and 143 nM, respectively. Moreover, the CC50 in data set [2] was 22000 nM. For the same molecule, the selectivity ratio in data set [3] turned out to be 10800. In addition, in data set [11], the IC50 came to 170 nM.
Take `[2H]C([2H])([2H])c1cc(C#N)cc(C([2H])([2H])[2H])c1Oc1nc(NC2CCN(Cc3ccc(C(N)=O)cc3)CC2)nc2sccc12`: the 50% effective concentration (EC50) is 4.19 nM in data set [1]; 21.6 nM in [4]; 4.58 nM in [5]; 53.8 nM in data set [6]; 61.6 nM in [7]; 62.3 nM in data set [8]. The EC50 in [9] was 724 nM; in data set [10], 496 nM. For the same molecule, the CC50 in data set [2] is over 241000 nM. Also, in data set [3], the selectivity ratio was over 57500. Also, the concentration for half-maximal inhibition (IC50) in [11] stood at 140 nM.
`[2H]C([2H])([2H])c1cc(C#N)cc(C)c1Oc1nc(NC2CCN(Cc3ccc(C(N)=O)cc3)CC2)nc2sccc12`: the EC50 in data set [1] was determined as 8.92 nM; in data set [4], 29.2 nM; in data set [5], 18.1 nM; in data set [6], 47.6 nM; in data set [7], 94.5 nM; in [8], 63.5 nM. For the same molecule, the EC50 worked out at 71.5 nM in data set [9] and 320 nM in [10]. The half-maximal cytotoxic concentration (CC50) in data set [2] is over 242000 nM. For the same molecule, in data set [3], the selectivity ratio is over 27200. Moreover, in [11], the IC50 is 120 nM.
Consider `[2H]C([2H])([2H])c1cc(C#N)cc(C)c1Oc1nc(NC2CCN(Cc3ccc(S(N)(=O)=O)cc3)CC2)nc2ccsc12`, for which the EC50 in data set [1] was determined as 5.77 nM; in data set [4], 8.56 nM; in [5], 3.67 nM; in data set [6] it was 12.1 nM; in [7], 12 nM; in data set [8], 12.6 nM. Further, the EC50 in data set [9] is 9.97 nM; in [10], 217 nM. Further, the half-maximal cytotoxic concentration (CC50) in data set [2] was determined as 178000 nM. Also, the selectivity ratio in [3] was determined as 31200. Moreover, the IC50 in data set [11] stood at 190 nM.
For `Cc1ccnc2c1NC(=O)c1cccnc1N2C1CC1` [NEVIRAPINE], the EC50 in data set [1] was 253 nM; in data set [4] it was 1270 nM; in data set [5] it was 4710 nM; in [7] it was over 15000 nM; in data set [8], 237 nM; in data set [9], 7320 nM. Moreover, in [10], the concentration giving a half-maximal response (EC50) was over 15000 nM. Further, the CC50 in data set [2] was over 15000 nM.
Turning to `[2H]C([2H])([2H])c1cc(C#N)cc(C([2H])([2H])[2H])c1Oc1nc(NC2CCN(Cc3ccc(S(N)(=O)=O)cc3)CC2)nc2scnc12`, the concentration for a half-maximal effect (EC50) in data set [1] was determined as 2.16 nM; in data set [4], 10.8 nM; in [5] it was 2.2 nM; in [6] it was 8.05 nM; in data set [7] it was 46 nM; in data set [8] it was 10.3 nM. Moreover, the 50% effective concentration (EC50) in data set [9] stood at 46.4 nM; in data set [10], 86.4 nM. Besides, the CC50 in [2] stood at 17900 nM. Moreover, the selectivity ratio in [3] was 8290. Further, the half-maximal inhibitory concentration (IC50) in data set [11] was determined as 190 nM.
In the case of `O=C1Nc2ccc(Cl)cc2[C@@](C#CC2CC2)(C(F)(F)F)O1` [EFAVIRENZ], the CC50 in data set [2] is over 6340 nM. Also, the EC50 in [4] was 41.8 nM; in [5] it was 99.2 nM; in data set [8], 8.32 nM; in data set [9] it was 203 nM.
